Results taken from US5834259A, “Process and composition for preparing D-aspartic acid” (Monsanto Company, priority 1996, dated 1998).

Columns and labels:
Type in all cases: biochemical, E. coli K12
[1] = target: T1, L-aspartate-α-decarboxylase (Escherichia coli, UniProt P0A790); experiment: Temperature study, 37° C. (Example 9); settings: for concentration in supernatant fluid / percent remaining: 1.0M, 100 g/l cells
T1 construct: expressed in transfected cells; host or cells: E. coli W3110 transformed with pIF309 = strain NS3291 (ATCC 98675), whole cells
Experimental: (§1) 133.1 g (1 mol) of D/L-aspartic acid was dissolved in deionized H2 O and the pH was adjusted to 7.0 with 10N NaOH, approximately 100 ml. Cells, freshly thawed from -80° C., were added to achieve a final concentration of 100 g/l. Three 2 L fermentors were each charged with 963 ml of substrate solution and 137 ml of cells and then heated to 37° C. and 45° C. while mixing at 300 rpm or heated to 50° C. while mixing at 450 rpm. Samples, approximately 1 ml, were removed over time and pH adjusted to 7.0 with either NaOH or HCl. After centrifugation to remove cells, the supernatant fluid was analyzed for both D- and L-aspartic acid.

[2] = target: T1, L-aspartate-α-decarboxylase; experiment: Temperature study, 45° C. (Example 9); settings: 1.0M, 100 g/l cells
Experimental: as §1

[3] = target: T1, L-aspartate-α-decarboxylase; experiment: Re-use of cells on fresh 0.5M D/L-aspartate (Example 5); settings: re-used cells, 37° C.
Experimental: Cells that had already been used in Example 3 were put in fresh substrate to determine if they were still active.
Fresh D/L-aspartate substrate was prepared as previously described in Example 3. The cells from Example 3 were resuspended in deionized H2 O and made up to 100 ml. The pH of the substrate (900 ml, 0.5M D/L-Asp) was adjusted to 7.0 with NaOH. After placing in the 2 L fermentor, the cells (100 ml) were added. There was no pH control and deionized H2 O was used for substrate. Samples were removed over time, centrifuged and the supernatant fluid diluted appropriately for both D- and L-aspartic acid determination. Temperature was set at 37° C.

[4] = target: T1, L-aspartate-α-decarboxylase; experiment: 1.0M D/L-aspartate, 50 g/l cells, reaction B (Example 6); settings: 37° C.
Experimental: 1.0M D/L-aspartate was tested as a substrate for two enzyme cell loads, 100 g/l cells, referred to here as reaction "A", and 50 g/l cells, referred to here as reaction "B".
133.1 g of D/L-aspartic acid was dissolved in approximately 600 ml deionized H2 O and pH was adjusted to 7.0 with NaOH, using 100 ml of 10N NaOH and a small amount of 1.0N NaOH. The substrate for reaction A was brought to 963 ml with deionized H2 O. The reaction was started with 137 ml cells that were stored in the cold room. For reaction B, the substrate was brought to a volume of 981.5 ml. The reaction was started with […] cells.
Both reactions were carried out in 2 L fermentors at pH 7.0 without constant adjustments and at 37° C. Samples were removed over time, centrifuged and the supernatant fluid was diluted and submitted for D- and L-aspartic acid HPLC analysis.

T1 sequence (P0A790 25-126): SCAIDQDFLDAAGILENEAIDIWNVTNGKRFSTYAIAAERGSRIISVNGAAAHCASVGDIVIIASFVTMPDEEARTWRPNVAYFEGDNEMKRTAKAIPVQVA
T1 sequence (P0A790 1-24): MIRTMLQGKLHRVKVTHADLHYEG

How did the “concentration in supernatant fluid” value ([1]; 0.0000 hr) turn out when `N[C@@H](CC(=O)O)C(=O)O` [L-Asp, L-aspartic acid] was run?
The value was 53.700 mg/mL.

What about the “concentration in supernatant fluid” value ([1]; 2.5000 hr) of the same molecule?
The value was 48.940 mg/mL.

What about the percent remaining ([1]; 2.5000 hr) of the same molecule?
Its percent remaining is 91.136%.

What about the “concentration in supernatant fluid” value ([1]; 4.0000 hr) of the same molecule?
The value was 47.600 mg/mL.

What about the percent remaining ([1]; 4.0000 hr) of the same molecule?
Its percent remaining is 88.641%.

What about the “concentration in supernatant fluid” value ([1]; 6.0000 hr) of the same molecule?
Its value is 46.170 mg/mL.

What about the percent remaining ([1]; 6.0000 hr) of the same molecule?
The percent remaining was 85.978%.

And the “concentration in supernatant fluid” value ([1]; 8.0000 hr)?
The value was 44.810 mg/mL.

And the percent remaining ([1]; 8.0000 hr)?
Its percent remaining is 83.445%.

What about the “concentration in supernatant fluid” value ([1]; 10.000 hr) of the same molecule?
Its value is 42.120 mg/mL.

And the percent remaining ([1]; 10.000 hr)?
The percent remaining was 78.436%.

What about the “concentration in supernatant fluid” value ([1]; 12.000 hr) of the same molecule?
Its value is 42.120 mg/mL.

What about the percent remaining ([1]; 12.000 hr) of the same molecule?
The percent remaining was 78.462%.

And the “concentration in supernatant fluid” value ([1]; 20.000 hr)?
Its value is 35.960 mg/mL.

And the percent remaining ([1]; 20.000 hr)?
Its percent remaining is 66.965%.

And the “concentration in supernatant fluid” value ([1]; 24.000 hr)?
Its value is 34.840 mg/mL.

And the percent remaining ([1]; 24.000 hr)?
The percent remaining was 64.879%.

And the “concentration in supernatant fluid” value ([1]; 29.000 hr)?
Its value is 28.040 mg/mL.

And the percent remaining ([1]; 29.000 hr)?
The percent remaining was 54.078%.

What about the “concentration in supernatant fluid” value ([1]; 34.000 hr) of the same molecule?
The value was 28.040 mg/mL.

What about the percent remaining ([1]; 34.000 hr) of the same molecule?
Its percent remaining is 54.078%.

What about the “concentration in supernatant fluid” value ([1]; 44.000 hr) of the same molecule?
Its value is 21.670 mg/mL.

And the percent remaining ([1]; 44.000 hr)?
The percent remaining was 40.354%.

And the “concentration in supernatant fluid” value ([1]; 48.000 hr)?
The value was 18.440 mg/mL.

What about the percent remaining ([1]; 48.000 hr) of the same molecule?
Its percent remaining is 34.339%.

What about the “concentration in supernatant fluid” value ([1]; 68.000 hr) of the same molecule?
The value was 5.9700 mg/mL.

And the percent remaining ([1]; 68.000 hr)?
The percent remaining was 11.117%.

What about the “concentration in supernatant fluid” value ([1]; 92.000 hr) of the same molecule?
The value was 0.915 mg/mL.

And the percent remaining ([1]; 92.000 hr)?
The percent remaining was 1.7039%.

And the “consumption of the isomer” value ([1]; by 99.75 hours)?
The value was “almost completely consumed”.

What about the “concentration in supernatant fluid” value ([2]; 0.000 hr) of the same molecule?
The value was 54.410 mg/mL.

What about the percent remaining ([2]; 2.5000 hr) of the same molecule?
The percent remaining was 92.079%.

What about the “concentration in supernatant fluid” value ([2]; 4.0000 hr) of the same molecule?
Its value is 47.110 mg/mL.

And the percent remaining ([2]; 4.0000 hr)?
Its percent remaining is 86.583%.

And the “concentration in supernatant fluid” value ([2]; 6.0000 hr)?
The value was 43.130 mg/mL.

And the percent remaining ([2]; 6.0000 hr)?
Its percent remaining is 79.269%.

What about the “concentration in supernatant fluid” value ([2]; 8.0000 hr) of the same molecule?
The value was 39.310 mg/mL.

And the percent remaining ([2]; 8.0000 hr)?
Its percent remaining is 72.248%.

And the “concentration in supernatant fluid” value ([2]; 10.000 hr)?
Its value is 36.800 mg/mL.

And the percent remaining ([2]; 10.000 hr)?
Its percent remaining is 67.635%.

And the “concentration in supernatant fluid” value ([2]; 12.000 hr)?
Its value is 34.540 mg/mL.

What about the percent remaining ([2]; 12.000 hr) of the same molecule?
Its percent remaining is 63.481%.

What about the “concentration in supernatant fluid” value ([2]; 20.000 hr) of the same molecule?
Its value is 24.690 mg/mL.

And the percent remaining ([2]; 20.000 hr)?
Its percent remaining is 45.378%.

And the “concentration in supernatant fluid” value ([2]; 24.000 hr)?
The value was 23.210 mg/mL.

And the percent remaining ([2]; 24.000 hr)?
The percent remaining was 42.658%.

And the “concentration in supernatant fluid” value ([2]; 29.000 hr)?
The value was 21.700 mg/mL.

What about the percent remaining ([2]; 29.000 hr) of the same molecule?
The percent remaining was 39.882%.

And the “concentration in supernatant fluid” value ([2]; 34.000 hr)?
The value was 19.310 mg/mL.

What about the percent remaining ([2]; 34.000 hr) of the same molecule?
The percent remaining was 35.490%.

And the “concentration in supernatant fluid” value ([2]; 44.000 hr)?
Its value is 15.800 mg/mL.

And the percent remaining ([2]; 44.000 hr)?
Its percent remaining is 29.039%.

And the “concentration in supernatant fluid” value ([2]; 48.000 hr)?
Its value is 16.700 mg/mL.

And the percent remaining ([2]; 48.000 hr)?
The percent remaining was 30.822%.

And the “concentration in supernatant fluid” value ([2]; 68.000 hr)?
Its value is 16.050 mg/mL.

And the percent remaining ([2]; 68.000 hr)?
The percent remaining was 29.498%.

And the “concentration in supernatant fluid” value ([2]; 92.000 hr)?
The value was 13.370 mg/mL.

And the percent remaining ([2]; 92.000 hr)?
Its percent remaining is 24.573%.

And the “concentration in supernatant fluid” value ([3]; 0.0000 hr)?
Its value is 24.700 mg/mL.

And the “concentration in supernatant fluid” value ([3]; 6.2500 hr)?
Its value is 17.130 mg/mL.

And the percent remaining ([3]; 6.2500 hr)?
The percent remaining was 69.352%.

What about the “concentration in supernatant fluid” value ([3]; 15.250 hr) of the same molecule?
The value was 15.620 mg/mL.

What about the percent remaining ([3]; 15.250 hr) of the same molecule?
Its percent remaining is 63.239%.

And the “concentration in supernatant fluid” value ([3]; 25.750 hr)?
Its value is 10.870 mg/mL.

What about the percent remaining ([3]; 25.750 hr) of the same molecule?
Its percent remaining is 44.008%.

And the “concentration in supernatant fluid” value ([3]; 28.000 hr)?
Its value is 9.5300 mg/mL.

What about the percent remaining ([3]; 28.000 hr) of the same molecule?
The percent remaining was 38.583%.

What about the “concentration in supernatant fluid” value ([3]; 44.250 hr) of the same molecule?
The value was 4.4200 mg/mL.

What about the percent remaining ([3]; 44.250 hr) of the same molecule?
Its percent remaining is 17.895%.

What about the “concentration in supernatant fluid” value ([3]; 63.500 hr) of the same molecule?
The value was 0.98 mg/mL.

And the percent remaining ([3]; 63.500 hr)?
The percent remaining was 3.9676%.

What about the “concentration in supernatant fluid” value ([3]; 65.000 hr) of the same molecule?
Its value is 0.95 mg/mL.

And the percent remaining ([3]; 65.000 hr)?
Its percent remaining is 3.8462%.

And the “concentration in supernatant fluid” value ([4]; 0.0000 hr)?
The value was 57.440 mg/mL.

What about the “concentration in supernatant fluid” value ([4]; 2.0000 hr) of the same molecule?
The value was 53.770 mg/mL.
